According to patent US8815535B2, “Disk diffusion assay for oritavancin” (The Medicines Company, priority 2011, dated 2014):
≈ marks a conversion by molar mass, not a printed value.

Experiments:
[1] = system: NRS123 and NRS2; assay: Disk diffusion assay, difference in zone diameter between two isolates; type: cell-based, Staphylococcus aureus
Description: The study was designed to identify conditions that improve oritavancin diffusion in agar and consequently yield a zone diameter ≧15 mm for the CLSI quality control strain MSSA ATCC 25923. Excipients that increased the disk diffusion of oritavancin in agar relative to disks containing only oritavancin were identified and selected for further study. […] A prediffusion step at room temperature was introduced to maximize oritavancin diffusion prior to initiation of bacterial growth. In this step, the antimicrobial disks were placed on agar plates seeded with a bacterial isolate and incubated at room temperature for 3 hours. Plates were then incubated overnight at 37° C. Zone diameters around the disks in which bacterial growth was inhibited were measured with a ruler and reported in millimeters.
Ethanol-sterilized Whatman paper disks (6 mm diameter) were allowed to dry then impregnated with 20 microliters of oritavancin solution containing total amounts ranging from 90 to 360 micrograms. Disks were allowed to dry at room temperature for various times prior to use.
Bacterial suspensions were prepared and adjusted to an optical density of 0.1 at 600 nm. Standard cation-adjusted Mueller Hinton agar plates (90 mm diameter) were seeded with bacterial suspensions by initially swabbing the center of plate then moving outward towards the edge. The plate was swabbed a second time, perpendicular to the orientation of the first swab. To assess the impact of prediffusion on diameter of inhibition zones, two disks were immediately placed on one half of the plate and the plate was incubated for 3 hours at room temperature. After 3 hours, two additional disks were placed on the other half of the plate then the plate was incubated overnight at 37° C. Zone diameters were measured with a ruler and reported in millimeters.

[2] = system: VISA Mu50 (ATCC 700699); assay: Broth microdilution (BMD) MIC; type: cell-based; conditions: Staphylococcus aureus; VISA ATCC 700699 (Mu50); read-out: Oritavancin BMD MIC
Description: (§1) To date, only the broth microdilution (BMD) minimal inhibitory concentration (MIC) test is a reference method accepted by the Clinical Laboratory Standards Institute (CLSI) for use in determining the susceptibility of a bacterial isolate to oritavancin (Methods for Dilution Antimicrobial Susceptibility Tests for Bacteria That Grow Aerobically; Approved Standard, CLSI document M7-A8, 8th ed. Clinical and Laboratory Standards Institute, Wayne, Pa. 2009; Performance Standards for Antimicrobial Susceptibility Testing; Eighteenth Informational Supplement, CLSI document M100-S18, 7th ed. Clinical and Laboratory Standards Institute, Wayne, Pa. 2008).

[3] = system: MRSA V257345; assay: Broth microdilution (BMD) MIC; type: cell-based; conditions: Staphylococcus aureus, read-out: Oritavancin BMD MIC
Description: as §1

[4] = system: MRSA NRS123; assay: Broth microdilution (BMD) MIC; type: cell-based; conditions: Staphylococcus aureus, read-out: Oritavancin BMD MIC
Description: as §1

[5] = system: MSSA ATCC 29213; assay: Broth microdilution (BMD) MIC; type: cell-based; conditions: Staphylococcus aureus, read-out: Oritavancin BMD MIC
Description: as §1

[6] = system: VISA NRS402; assay: Broth microdilution (BMD) MIC; type: cell-based; conditions: Staphylococcus aureus, read-out: Oritavancin BMD MIC
Description: as §1

[7] = system: MRSA U784439; assay: Broth microdilution (BMD) MIC; type: cell-based; conditions: Staphylococcus aureus, read-out: Oritavancin BMD MIC
Description: as §1

[8] = system: MRSA V288615; assay: Broth microdilution (BMD) MIC; type: cell-based; conditions: Staphylococcus aureus, read-out: Oritavancin BMD MIC
Description: as §1

[9] = system: MRSA T998608; assay: Broth microdilution (BMD) MIC; type: cell-based; conditions: Staphylococcus aureus, read-out: Oritavancin BMD MIC
Description: as §1

CN[C@H](CC(C)C)C(=O)N[C@H]1C(=O)N[C@@H](CC(N)=O)C(=O)N[C@H]2C(=O)N[C@H]3C(=O)N[C@H](C(=O)N[C@H](C(=O)O)c4cc(O)cc(O)c4-c4cc3ccc4O)[C@H](O[C@H]3C[C@](C)(N)[C@@H](O)[C@H](C)O3)c3ccc(c(Cl)c3)Oc3cc2cc(c3O[C@@H]2O[C@H](CO)[C@@H](O)[C@H](O)[C@H]2O[C@H]2C[C@](C)(NCc3ccc(-c4ccc(Cl)cc4)cc3)[C@@H](O)[C@H](C)O2)Oc2ccc(cc2Cl)[C@H]1O [oritavancin, N-(4-(4-chlorophenyl)benzyl)A82846B]
Difference in diameter (NRS2 subtracted from NRS123) ([1]; 90 μg oritavancin, 2.5% P80): 1.8 mm
Difference in diameter (NRS2 subtracted from NRS123) ([1]; 90 μg oritavancin, 5% P80): 1 mm
Difference in diameter (NRS2 subtracted from NRS123) ([1]; 90 μg oritavancin, 10% P80): −0.3 mm
Difference in diameter (NRS2 subtracted from NRS123) ([1]; 180 μg oritavancin, 2.5% P80): 1.7 mm
Difference in diameter (NRS2 subtracted from NRS123) ([1]; 180 μg oritavancin, 5% P80): 1.3 mm
Difference in diameter (NRS2 subtracted from NRS123) ([1]; 180 μg oritavancin, 10% P80): 1.3 mm
Difference in diameter (NRS2 subtracted from NRS123) ([1]; 360 μg oritavancin, 2.5% P80): 1.8 mm
Difference in diameter (NRS2 subtracted from NRS123) ([1]; 360 μg oritavancin, 5% P80): 0.5 mm
Difference in diameter (NRS2 subtracted from NRS123) ([1]; 360 μg oritavancin, 10% P80): 1 mm
MIC [2]: 1 µg/mL (≈ 0.558 µM)
MIC [3]: 0.12 µg/mL (≈ 0.0669 µM)
MIC [4]: 0.03 µg/mL (≈ 0.0167 µM)
MIC [5]: 0.06 µg/mL (≈ 0.0335 µM)
MIC [6]: 1 µg/mL (≈ 0.558 µM)
MIC [7]: 0.03 µg/mL (≈ 0.0167 µM)
MIC [8]: 0.03 µg/mL (≈ 0.0167 µM)
MIC [9]: 0.03 µg/mL (≈ 0.0167 µM)
